Measurements reported in PMC4493835 (Frontiers in Microbiology, 2015).
Where two headings read alike, the source gives them in different places.

What was measured:
phospholipase D = assay type: cell-based, Phytophthora infestans
fungi = assay type: cell-based
Phytophthora infestans = assay type: cell-based
Phytophthora capsici = assay type: cell-based; conditions: 50 μM brabantamide A
Pythium ultimum = assay type: cell-based; conditions: 50 μM brabantamide A
Staphylococcus aureus = conditions: ref Reder-Christ et al., 2012; Schmidt et al., 2014; cited from earlier work
From the text: Recently, we discovered Pseudomonas sp. SH-C52, a strain representative of a larger population of Pseudomonads that contributes to the natural suppressiveness of a soil against the fungal plant pathogen Rhizoctonia solani (Mendes et al., [2011]). The gene cluster responsible for the activity of strain SH-C52 against R. solani is encoded by an NRPS, predicted to synthesize a 9-amino-acid chlorinated LP, designated thanamycin (Mendes et al., [2011]). The production and partial structure of thanamycin was resolved by live colony mass spectrometry (Watrous et al., [2012]). Next to thanamycin, stra ...

[1] = system: Arthrobacter crystallopoietes; conditions: cited from earlier work
Rhodotorula pilimanae = conditions: cited from earlier work
B. megaterium [2] = conditions: cited from earlier work
B. megaterium [3] = conditions: cited from earlier work; remark: listed apart in the source
Rhizoctonia solani = conditions: cited from earlier work
[4] = system: Pectobacterium atrosepticum; assay type: cell-based; conditions: inferred from wild type vs thanamycin mutants; data not shown
Method: (§1) For in vitro growth inhibition of fungi and oomycetes, SH-C52 and its derivative strains were, using an overnight culture in KB, spot-inoculated (3 μl) at the periphery of 1/5th strength PDA (pH 7.0) plates. After incubation for 2 days at 25°C, an agar plug (4-mm-diameter) from a freshly grown plate with the target organism was transferred to the center of the 1/5th PDA plate. Inhibition of radial growth of the fungus or the oomycete was monitored from 2 days after incubation up to 2 weeks after incubation, depending on the growth speed of the target organism. For in vitro bacteria and yeast inhibition assays, bacteria and yeast cells were included, after autoclaving and cooling to 45°C, into the 1/5th PDA medium at a concentration of ~10^5 cfu/ml. After solidifying and sufficient drying of the plates, SH-C52 and its derivative strains were, using an overnight culture in KB, spot-inoculated (3 μl) at the periphery of the bacteria or yeast containing plates.

Pseudomonas syringae = assay type: cell-based; conditions: inferred from wild type vs thanamycin mutants; data not shown
Method: as §1

For brabantamide, the “variation in the phospholipid levels” value (phospholipase D) was “no significant variation”.
For brabantamide A, the antifungal activity (fungi) was “No antifungal activity”, the “concentration above which mycelial growth is inhibited (less dense mycelial mat)” value (Phytophthora infestans) was “above 5 μM” and the “activity against P. infestans” value (Phytophthora infestans; 1% DMSO, 18°C) was “has activity”. For the same substance, the “inhibition of phospholipase A2” value (phospholipase A2) was “no indication was found”, the “concentration at which the increase in PtdBut levels already occurred” value (phospholipase D) was at most 1 µM and the other phospholipid levels (phospholipase D) was “not affected”. The “phosphatidylbutanol (PtdBut) levels (indicates stimulation of phospholipase D)” value (phospholipase D; n = 2) was “increase”, the “activity against Phytophthora capsici” value (Phytophthora capsici) was “has activity” and the “activity against Pythium ultimum” value (Pythium ultimum) was “has activity”. The “activity against Staphylococcus aureus” value (Staphylococcus aureus) was “displays activity” and the “activity against Arthrobacter crystallopoietes” value [1] was “displays activity”.
In the case of cormycin, the “activity against the yeast Rhodotorula pilimanae” value (Rhodotorula pilimanae) is given as “active” and the “activity against B. megaterium” value (B. megaterium [2]) is given as “active”.
In the case of corpeptin, the “activity against B. megaterium” value (B. megaterium [3]) is given as “activity was observed”.
For syringopeptin, the “activity against B. megaterium” value (B. megaterium [3]) is listed as “activity was observed”.
For thanamycin, the “antifungal activity against Rhizoctonia solani” value (Rhizoctonia solani) is given as “antifungal activity”, the “activity against Pectobacterium atrosepticum” value [4] is given as “little activity” and the “activity against Pseudomonas syringae” value (Pseudomonas syringae) is given as “little activity”.
